{"source": "patent US8541476B2", "about": "“Compounds for treatment of malignant tumors” (The Trustees of the University of Pennsylvania, priority 2007, dated 2013)", "key": {"[1]": {"system": "U251 cells transplanted into ZF embryos", "assay": "U251 xenograft ZF model (U251-RFP fluorescence)", "assay_type": "in vivo, Danio rerio", "protocol": "ZF were raised in accordance with previously established protocols (McAleer, et al., 2005, J. Radiat. Oncol. Biol. Phys. 61:10-3) at the University of Pennsylvania School of Medicine. Embryos were maintained at 30° C. after transplantation procedures. The age of embryos is indicated as the hours post-fertilization (hpf) and days post-fertilization (dpf) for all experimental data shown. Embryos were either irradiated with 10 Gy or sham-irradiation as previously described (McAleer, et al., 2005, J. Radiat. Oncol. Biol. Phys. 61:10-3) immediately after photography at 24 hpf. Selected embryos were incubated with NS-123 at a concentration of 30 μM for 14 hours before either irradiation or sham-irradiation.\nU251 cells were stably transfected with a RFP construct (pDsRed2-C 1; Clontech, Palo Alto, Calif.). Using a Nanoject II microinjector (Drummond Scientific, Broomall, Pa.) 1-100 cells were transplanted into each ZF embryo still in the chorion, from the high stage of their development (approximately 3.5 hpf) to the oblong-sphere stage (approximately 4.5 hpf). The transplantation site was localized either to the blastodisc approximately halfway between the margin and the animal pole or the center of the embryonic yolk sac. Morphological analysis was performed as previously described (Geiger, et al., 2006, Cancer Res. 66:8172-81). Transplanted embryos were examined under a 100× PlanNeofluor objective mounted on a Nikon TE-200 epifluorescence microscope. Images of embryos bearing RFP-positive cells were captured with a Hammamatsu CCD camera controlled with IP LabSpectrum v2.0.1 software (Scanalytics, Inc., Rockville, Md.). Image analysis and pseudocoloring was performed with Kodak Molecular Imaging software v. 4.0.5 (Kodak, Rochester, N.Y.). […]\nHuman cancer cells can be transplanted into ZF embryos through microinjection (Lee et al., 2005, Dev. Dyn. […]:1560-1570; Haldi et al., 2006, Angiogenesis 9:139-151; Mizgireuv et al., 2006, Cancer Res. 66:3120-3125). […] The embryos were subsequently examined for fluorescence on sequential days following irradiation."}, "[2]": {"system": "HT-29 colorectal cancer cells", "assay": "Clonogenic survival assay, HT-29 cells", "assay_type": "cell-based, human", "quoted_text": "U251, HT-29, or A549 cells were plated at different densities in triplicate, treated with NS-123 or DMSO (alone) and irradiated 4, 8, or 12 hours later with a range of doses using ^137Cs γ-rays at a dose rate of ˜4 Gy/minute (min). One hour after irradiation, the medium was replaced with fresh medium without NS-123 or DMSO. The cells were fixed 7-14 days after IR and stained with crystal violet.\nClonogenic survival assays were performed.\nIn both cases, cells were pretreated with the compounds or DMSO vehicle control for 4 hours prior to treatment with ionizing radiation at the indicated doses."}, "U251 glioma cell line": {"system": "U251 glioma cell line", "assay": "Chemical library radiosensitizer screen (MTS assay, paired plates 4 Gy / unirradiated)", "assay_type": "cell-based, human", "details": "U251, 8 hours at 2.5 μM, MTS four days later", "protocol": "Six hundred U251 cells were plated per well in 96 well plates. Cells in each well were then treated with a different compound from the Nanosyn library for 8 hours at 2.5 μM concentration. Treatment was performed with paired 96-well plates; one plate was exposed to 4 Gy and the other plate was an unirradiated control. One hour after irradiation, the medium was replaced with fresh medium alone. Four days later, the MTS assay was used to evaluate cell survival. Absorbance was measured at 490 nm with a microplate reader (Sprectramax, Molecular Devices, Sunnyvale, Calif.). Radiosensitivity factors (RSF) were calculated according to the following formula for each compound tested with the assay:\n[formula] Survival Assays\nThe small chemical compound chemical library (Nanosyn, Inc.) was replicated in a 96-well format and compounds were dissolved in DMSO at a concentration of […]. Using the U251 glioma cell line, the radiosensitizing capability of 870 compounds was initially assayed within the library. The assay was optimized in terms of the number of cells, radiation dose used, and the number of days incubated so that a decrease in survival could be assessed. […] The structure of three novel radiosensitizing compounds is depicted in FIG. 1B."}}, "data": [{"smiles": "CCC(=O)c1ccc(Br)c([N+](=O)[O-])c1", "note": "[NS-123, 4′-bromo-3′-nitropropiophenone]", "values": [{"measurement": "surviving U251 cells, irradiated in the presence of drug", "setting": "[1]; NS-123 + 10 Gy IR, 5 dpf", "result": "markedly fewer cells"}, {"measurement": "relative fluorescence versus irradiated-only control", "setting": "[1]; NS-123 + IR, 10 embryos/condition/experiment", "result": "faster decrease in luminescence"}, {"measurement": "size of U251 xenografts, drug alone", "setting": "[1]; NS-123 alone, 3 or 5 dpf", "result": "did not have any significant effect on the size"}, {"measurement": "DER at 0.5 survival", "setting": "[2]; HT-29, 5 μM for 12 hours prior to IR", "result": 3.0}, {"measurement": "DER at 0.1 survival", "setting": "[2]; HT-29, pretreatment with NS-123", "result": 3.0}, {"measurement": "average Radiosensitivity factor (RSF)", "setting": "U251 glioma cell line", "result": 4.62}]}]}
